Test results taken from patent publication US9464064B2, “HCV helicase inhibitors and methods of use thereof” (University of Kansas, priority 2011, dated 2016).
Read-outs that look alike come from different tables or passages of the source.

Legend:
Huh-7.5 cells = test: Cell viability assay ([…]-GLO); assay type: cell-based, human; settings: for Cell viability (% viable): 10 μM compound, triplicate, average ± SD
Summary of the method: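 Huh-7.5 cells exposed to compound for 72 hours, washed, then lysed in a 1:1 mix of growth medium and […]-GLO reagent. After 30 minutes at 23° C., luminescence was read for 1 second as a measure of viability.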

NS3h_2a(JFH1) = molecular target: T1, NS3h_2a(JFH1) (Hepatitis C virus genotype 2a, UniProt Q99IB8); test: MBHA, DNA substrate, genotype 2a helicase; assay type: biochemical, hepatitis C virus genotype 2a(JFH1)
T1 construct: truncated C-terminally His-tagged NS3 proteins lacking the N-terminal protease, called NS3h; His-tag (C); made in house
T1 sequence (Q99IB8 1196-1661): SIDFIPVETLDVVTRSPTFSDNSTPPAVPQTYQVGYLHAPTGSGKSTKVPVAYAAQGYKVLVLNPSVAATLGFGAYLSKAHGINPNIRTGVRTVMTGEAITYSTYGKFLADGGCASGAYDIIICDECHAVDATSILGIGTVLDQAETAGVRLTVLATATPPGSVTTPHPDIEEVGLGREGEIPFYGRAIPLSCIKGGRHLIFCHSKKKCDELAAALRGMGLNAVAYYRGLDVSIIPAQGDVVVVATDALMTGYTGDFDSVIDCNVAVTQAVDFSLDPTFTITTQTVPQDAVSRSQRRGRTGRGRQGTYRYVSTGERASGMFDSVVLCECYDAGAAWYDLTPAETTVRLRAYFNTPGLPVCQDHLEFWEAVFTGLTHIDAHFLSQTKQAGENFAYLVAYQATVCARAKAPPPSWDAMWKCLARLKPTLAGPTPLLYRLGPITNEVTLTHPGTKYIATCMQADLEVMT
Experimental: All oligonucleotides were purchased from Integrated DNA Technologies (IDT, Coralville, Iowa). Primuline derivatives were synthesized and purified as described herein. Three different NS3 proteins were used in this study. Two were truncated C-terminally His-tagged NS3 proteins lacking the N-terminal protease, called NS3h, the third was a full-length NS3 with the portion of NS4A needed for protease activation fused to its N-terminus, called scNS4A-NS3 (Howe, et al. (1999) Protein Sci. 8:1332-41), and the fourth was a 23 kDa scNS4A-NS3 protease fragment lacking the helicase domains, called scNS4A-NS3p (Protein One, Rockville, Md.). NS3h was expressed from two different HCV strains. NS3h_1b(con1) was from the con1 strain of genotype 1b (GENBANK accession AB114136), and NS3h_2a(JFH1) was from the JFH1 strain of HCV genotype 2a (GENBANK accession AJ238799). […] His-tagged recombinant NS3h_1b(con1), NS3h_2a(JFH1), and scNS4A-NS3 (also from genotype 1b(con1)) were expressed, and purified as previously described (Frick, et al. (2010) supra; Lam, et al. (2003) J. Virol. 77:3950-3961). The scNS4A-NS3p (genotype 1b) was from Protein One. A plasmid expressing NS3h from dengue virus strain 2 (NS3h_DV2)(GENBANK accession 2BMF) is known in the art (Xu, et al. (2005) J. Virol. 79:10278-10288), and used to express and purify NS3h_DV2 (Belon, et al. (2010) supra)
Compounds that specifically target less conserved regions of a HCV protein are often not potent inhibitors of the same protein derived from other genotypes, and they might be susceptible to rapid evolution of related viruses. As described herein, primuline derivatives can inhibit HCV helicase isolated from the genotype 1b(con1) strain. Therefore to further analyze specificity, the subset of primuline analogs was tested on the helicase isolated from the genotype 2a(JFH1) strain. The two recombinant proteins differ at 83 of their 480 amino acids. The JHF1 strain is also of interest because it serves as the backbone for HCV strains capable of replicating in cell culture (Wakita, et al. (2005) Nat. Med. 11:791-796). The molecular beacon-based helicase assay (MBHA) (Belon & Frick (2008) supra) was used to measure the ability of each compound to inhibit DNA unwinding catalyzed by NS3h isolated from genotype 2a(JFH1) (NS3h_2a(JFH1)). […] Selected compounds were also tested for the ability to inhibit helicase reactions catalyzed by full-length NS3 and a single chain NS4A-NS3 protein (scNS4A-NS3) described below and used for protease assays.

[1] = molecular target: T2, E. coli SSB-Cy5-dT15 complex (Escherichia coli, UniProt P0AGE0); test: Escherichia coli SSB Cy5-dT15 binding assay (fluorescence polarization); settings: for IC50: disruption of Cy5-dT15-SSB complex, read-out: Cy5-dT15-SSB Binding IC50; for inhibition at 100 µM: read-out: SSB % Displaced @ 100 μM; for EC50: read-out: SSB EC50
T2 construct: purchased Promega
T2 sequence (P0AGE0 2-178, one chain of several): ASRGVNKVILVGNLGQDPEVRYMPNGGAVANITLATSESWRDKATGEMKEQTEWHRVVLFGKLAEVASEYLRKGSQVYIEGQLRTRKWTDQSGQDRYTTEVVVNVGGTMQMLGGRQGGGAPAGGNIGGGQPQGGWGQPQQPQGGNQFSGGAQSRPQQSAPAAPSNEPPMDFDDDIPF
Summary of the method: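 Fluorescence polarization with 5 nM Cy5-dT15 and 20 nM E. coli SSB in 25 mM MOPS pH 7.5, 1.25 mM MgCl2, BSA, Tween 20, DTT. Screening at 1% DMSO; IC50 runs at 5% DMSO. Excitation 635 nm, parallel and perpendicular emission at 667 nm.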

MBHA DNA substrate = test: Modified FID assay, SYBR Green I; assay type: binding; settings: for DNA binding (%): SYBR Green I-FID, average (±SD) percent bound at 100 μM
Summary of the method: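 Fluorescent intercalator displacement with SYBR Green I (0.68 μM) in place of ethidium bromide and MBHA DNA at 0.32 μM. Normalized data fit to concentration-response equation; EC50 given as mean ± SD of three independent triplicate titrations.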

[2] = DNA-based MBHA, genotype 2a(JFH1), read-out: DNA Helicase NS3h_2a IC50 (μM) ± SD
[3] = genotype 2a (JFH1), read-out: Target Potency MBHA (IC50 avg., μM) 2a (JFH1) (converted)
[4] = SYBR Green, read-out: FID (SG) EC50 (converted)

| SMILES | Cell Viability (% @ 10 μM) (Huh-7.5 cells) | Cell viability (% viable) (Huh-7.5 cells) | IC50 (NS3h_2a(JFH1); [2]) | IC50 (NS3h_2a(JFH1); [3]) | IC50 [1] | inhibition at 100 µM [1] | EC50 [1] | DNA binding (%) (MBHA DNA substrate) | FID (SG) % Displaced @ 100 μM (MBHA DNA substrate; SYBR Green) | EC50 (MBHA DNA substrate; [4]) | EC50 (MBHA DNA substrate; FID, mean ± SD, read-out: DNA Binding (SYBR Green I) EC50) |
| --- | --- | --- | --- | --- | --- | --- | --- | --- | --- | --- | --- |
| Cc1ccc2nc(-c3ccc4nc(-c5ccc(NC(=O)c6ccc(F)cc6)cc5)sc4c3)sc2c1S(=O)(=O)O.N [Compound 7, 2′-(4-(4-fluorobenzamido)phenyl)-6-methyl-[2, bibenzo[d]thiazole]-7-sulfonic acid] | 94 ± 2% | 94 ± 2% | 3 ± 0.8 µM | 3 ± 0.8 µM | 14 ± 4 µM | 88% | 14 ± 4 µM | 35 ± 15% | 35 ± 15% | > 100 µM | – |
| COc1ccc(S(=O)(=O)Nc2ccc(-c3nc4ccc(-c5nc6ccc(C)c(S(=O)(=O)O)c6s5)cc4s3)cc2)cc1 [Compound 29, 2′-(4-(4-methoxyphenylsulfonamido)phenyl)-6-methyl-[2,6′-bibenzo[d]thiazole]-7-sulfonic acid] | 75 ± 3% | 75 ± 3% | – | 13.4 µM | 10 ± 2 µM | 98% | 10 µM | 69 ± 4% | 69 ± 4% | 42 µM | – |
| Cc1ccc2nc(-c3ccc4nc(-c5ccc(NC(=O)c6ccc(C(F)(F)F)cc6)cc5)sc4c3)sc2c1S(=O)(=O)O [Compound 12, 6-methyl-2′-(4-(4-(trifluoromethyl)benzamido)phenyl)-[2,6′-bibenzo[d]thiazole]-7-sulfonic acid] | 90 ± 4% | 90 ± 4% | 2 ± 1 µM | 2.5 ± 1 µM | 3 µM | 80% | 4 ± 2 µM | 69 ± 9% | 69 ± 9% | 29 ± 9 µM | – |
| Cc1ccc2nc(-c3ccc(NC(=O)c4ccc(NC(=O)c5ccc(C(F)(F)F)cc5)cc4)cc3)sc2c1S(=O)(=O)O.N [Compound 44] | 97 ± 7% | – | – | 14.7 µM | 23 ± 6 µM | 86% | 23 µM | – | 41 ± 2% | > 100 µM | – |
| COC(=O)c1ccc(C(=O)Nc2ccc(-c3nc4ccc(-c5nc6ccc(C)c(S(=O)(=O)O)c6s5)cc4s3)cc2)cc1 [Compound 9, 2′-(4-(4-(methoxycarbonyl)benzamido)phenyl)-6-methyl-[2,6′-bibenzo[d]thiazole]-7-sulfonic acid] | 101 ± 8% | 101 ± 8% | – | 2.4 ± 0.6 µM | 1 µM | 91% | 2 ± 0.5 µM | 28 ± 10% | 28 ± 10% | > 100 µM | – |
| Cc1ccc2nc(-c3ccc4nc(-c5ccc(NC(=O)c6ccc(NC(=O)OCC7c8ccccc8-c8ccccc87)cc6)cc5)sc4c3)sc2c1S(=O)(=O)O [Compound 16, 2′-(4-(4-((((9H-fluoren-9-yl)methoxy)carbonyl)amino)benzamido)phenyl)-6-methyl-[2,6′-bibenzo[d]thiazole]-7-sulfonic acid] | 92 ± 4% | 92 ± 4% | – | 5.8 ± 3.1 µM | 179 ± 239 µM | 53% | > 100 µM | 76 ± 5% | 76 ± 5% | 6 ± 2 µM | – |
| Cc1ccc2nc(-c3ccc4nc(-c5ccc(NC(=O)c6ccc7nc(-c8ccc(N)cc8)sc7c6)cc5)sc4c3)sc2c1S(=O)(=O)O [Compound 35, 2′-(4-(2-(4-aminophenyl)benzo[d]thiazole-6-carboxamido)phenyl)-6-methyl-[2,6′-bibenzo[d]thiazole]-7-sulfonic acid] | 85 ± 2% | 85 ± 2% | 3 ± 1.2 µM | 3.5 µM | 3 ± 1 µM | 95% | – | 59 ± 4% | 59 ± 4% | 68 µM | – |
| Cc1ccc(NC(=O)Nc2ccc(-c3nc4ccc(-c5nc6ccc(C)c(S(=O)(=O)O)c6s5)cc4s3)cc2)cc1 [Compound 28, 6-methyl-2′-(4-(3-(p-tolyl)ureido)phenyl)-[2,6′-bibenzo[d]thiazole]-7-sulfonic acid] | 93 ± 1% | 93 ± 1% | – | 4 µM | 10 ± 3 µM | 96% | 10 µM | 90 ± 9% | 90 ± 9% | 18 µM | 13 µM |
| Cc1ccc2nc(-c3ccc4nc(-c5ccc(NC(=O)Nc6ccc(Cl)cc6)cc5)sc4c3)sc2c1S(=O)(=O)O [Compound 54] | 98 ± 1% | – | – | 4.4 µM | 5 ± 1 µM | 94% | 5 µM | – | 74 ± 4% | 8 µM | – |
| Cc1ccc2nc(-c3ccc4nc(-c5ccc(NC(=S)Nc6ccccc6)cc5)sc4c3)sc2c1S(=O)(=O)O.N [Compound 50] | 98 ± 10% | – | – | 9.6 µM | 7 ± 1 µM | 98% | 7 µM | – | 76 ± 9% | 30 µM | – |
| Cc1ccc2nc(-c3ccc(NC(=O)c4ccc(NC(=O)c5ccc(N)cc5)cc4)cc3)sc2c1S(=O)(=O)O.N [Compound 46] | 112 ± 5% | – | – | 26 µM | 17 ± 5 µM | 94% | 17 µM | – | 21% | > 100 µM | – |
| Cc1ccc2nc(-c3ccc4nc(-c5ccc(NC(=O)c6cccc(C(F)(F)F)c6)cc5)sc4c3)sc2c1S(=O)(=O)O [Compound 20, 6-methyl-2′-(4-(3-(trifluoromethyl)benzamido)phenyl)-[2,6′-bibenzo[d]thiazole]-7-sulfonic acid] | 121 ± 3% | 121 ± 3% | – | 15.9 ± 2 µM | – | 23% | > 100 µM | 46 ± 10% | 46 ± 10% | > 100 µM | – |
| Cc1ccc2nc(-c3ccc(NC(=O)c4ccc(NC(=O)OCC5c6ccccc6-c6ccccc65)cc4)cc3)sc2c1S(=O)(=O)O.N [Compound 42] | 108 ± 2% | – | – | 12 µM | 27 ± 5 µM | 93% | 27 µM | – | 44 ± 2% | > 100 µM | – |
| Cc1ccc2nc(-c3ccc4nc(-c5ccc(NC(=O)c6ccncc6)cc5)sc4c3)sc2c1S(=O)(=O)O [Compound 32, 2′-(4-(isonicotinamido)phenyl)-6-methyl-[2,6′-bibenzo[d]thiazole]-7-sulfonic acid] | 117 ± 5% | 117 ± 5% | – | 52 ± 25 µM | 55 ± 20 µM | 63% | 55 µM | 19 ± 7% | 19 ± 7% | > 100 µM | – |
